PubChem BioAssay AID623867 (Sanford-Burnham Center for Chemical Genomics, 2012)
The source made the active and inactive calls.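 How the source made its calls: active means mean IC50 of at most 10 µM; inactive means the rest.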

Tested on: H9c2 cardiomyocytes, H2O2 injury protection, ATP luminescence, 2 h
Test: protection of H9c2 cells from H2O2 death, SAR follow-up, hydrogen peroxide, ATP luminescence (AID 623867)

| Structure (SMILES) | IC50 |
| --- | --- |
| CCN(CC)S(=O)(=O)c1cc(C(=O)N2CCN(Cc3cccc4cccnc34)CC2)ccc1C | > 79 µM (inactive) |
| COc1ccc(-c2cc(C(=O)NCc3ccco3)c3ccccc3n2)cc1OC | 41 µM |
| Cc1ccc2cc(CN(C)S(=O)(=O)c3ccc(F)cc3)c(=O)[nH]c2c1 | > 79 µM (inactive) |
| CCCN(CC(=O)Nc1ccccc1OC)C(=O)c1cc(-c2cccs2)nn1-c1ccccc1 | > 79 µM (inactive) |
| O=C(C(=O)N1CCCCC1)c1c(-c2ccccc2)[nH]c2ccccc12 | > 79 µM (inactive) |
| Cc1ccccc1N(C(=O)c1snc(C(N)=O)c1N)C(C(=O)NCc1ccc(F)cc1)c1ccc(O)cc1 (stereo not given) | > 79 µM (inactive) |
| COc1ccc(-c2cc(C(=O)N(C)C)c3ccccc3n2)cc1OC | > 79 µM (inactive) |
| O=C(C(=O)N1CCCC1)c1c(-c2ccccc2)[nH]c2ccccc12 | > 79 µM (inactive) |
| COc1ccc(-n2cc(-c3ccccc3)c3c(NCc4ccccc4)ncnc32)cc1 | > 79 µM (inactive) |
| COc1ccc(-c2cc(C(=O)NCc3ccccc3)c3ccccc3n2)cc1OC | > 79 µM (inactive) |
| O=c1[nH]c2ccccc2cc1CN(Cc1ccco1)S(=O)(=O)c1ccc(F)cc1 | > 79 µM (inactive) |
| CCCn1c(SC(C(=O)Nc2cccc(OC)c2)c2ccccc2)nc2ccccc2c1=O (stereo not given) | > 79 µM (inactive) |
| COc1ccc(-n2cc(-c3ccccc3)c3c(N4CCCCC4)ncnc32)cc1 | > 79 µM (inactive) |
| COc1ccc2c(=O)c(C(=O)N3CCN(S(=O)(=O)c4c(C)cc(C)cc4C)CC3)c[nH]c2c1 | > 79 µM (inactive) |
| COc1ccc(N2C(=O)c3ccccc3N3C(=O)c4c(ccc(OC)c4OC)C23)cc1 (stereo not given) | 23.4 µM (inactive) |
| Cc1ccc2cc(CN(Cc3cccnc3)S(=O)(=O)c3ccc(F)cc3)c(=O)[nH]c2c1 | > 79 µM (inactive) |
| COc1ccc(-c2cc(C(=O)N(C)Cc3ccc(OC)c(OC)c3OC)c3ccccc3n2)cc1OC | 10.1 µM (inactive) |
| Cc1ccc(-c2[nH]c3ccccc3c2C(=O)C(=O)N(C)C)cc1 | > 79 µM (inactive) |

| Structure (SMILES) | IC50 |
| --- | --- |
| COc1cccc(CN(C)C(=O)c2cc(-c3ccc(OC)c(OC)c3)nc3ccccc23)c1 | 10.7 µM (inactive) |
| CC(C)CCNC(=O)C(c1ccc(O)cc1)N(C(=O)c1snc(C(N)=O)c1N)c1ccccc1F (stereo not given) | > 79 µM (inactive) |
| COc1ccc2c(c1OC)C(=O)N1c3ccccc3C(=O)N(c3ccccc3C)C21 (stereo not given) | 58.5 µM (inactive) |
| COc1ccc2c(c1OC)C(=O)N1c3ccccc3C(=O)N(c3ccc(F)cc3)C21 (stereo not given) | 33.2 µM (inactive) |
| COc1cccc(NC(=O)CN(C)C(=O)c2cc(-c3cccs3)nn2-c2ccccc2)c1 | > 79 µM (inactive) |
| COc1ccc2cc(C(=O)N3CCN(S(=O)(=O)c4cc(C)ccc4C)CC3)c(C)nc2c1 | > 79 µM (inactive) |
| O=C1c2ccccc2N2C(=O)c3ccccc3[C@H]2N1c1ccccc1 | 29.4 µM (inactive) |
| Cc1ccc(C)c(S(=O)(=O)N2CCN(C(=O)c3cc4cc(C)ccc4nc3C)CC2)c1 | > 79 µM (inactive) |
| COCCNC(=O)C(c1ccc(O)cc1)N(C(=O)c1snc(C(N)=O)c1N)c1ccccc1F (stereo not given) | > 79 µM (inactive) |
| CCN(CC)C(=O)C(=O)c1c(-c2ccccc2)[nH]c2ccccc12 | > 79 µM (inactive) |
| COc1ccccc1N1C(=O)c2ccccc2N2C(=O)c3c(ccc(OC)c3OC)C12 (stereo not given) | 30.4 µM (inactive) |
| COc1cccc(CN(C)C(=O)c2cc(-c3ccccc3)nc3ccc(C)cc23)c1OC | > 79 µM (inactive) |
| COc1ccc(-n2cc(-c3ccccc3)c3c(N4CCCC4)ncnc32)cc1 | > 79 µM (inactive) |
| COCCn1c(SC(C(=O)Nc2cc(C)ccc2C)c2ccccc2)nc2ccccc2c1=O (stereo not given) | > 79 µM (inactive) |
| COc1cc(-c2cc(C(=O)Nc3cccc(C(C)=O)c3)c3ccccc3n2)cc(OC)c1OC | 8.45 µM |
| Cc1ccc(S(=O)(=O)N(Cc2cccnc2)Cc2cc3ccccc3[nH]c2=O)cc1 | > 79 µM (inactive) |
| COc1ccc2c(c1OC)C(=O)N1c3ccccc3C(=O)N(c3cccc(Br)c3)C21 (stereo not given) | 10.7 µM (inactive) |
